According to ChEMBL document CHEMBL4507281, “Data for DCP probe BI-4394” (2021):

Experiments:
[1] = system: Tyrosine-protein kinase ABL1 (Homo sapiens), P00519 [F317I]; settings: Compound concentration 100.0 nM
[2] = system: Tyrosine-protein kinase ABL1 (Homo sapiens), P00519 [M351T]; settings: Compound concentration 100.0 nM
[3] = target: Bone morphogenetic protein receptor type-2 (Homo sapiens) (UniProt Q13873); settings: Compound concentration 100.0 nM
[4] = target: Cyclin-dependent kinase 5 (Homo sapiens) (UniProt Q00535); settings: Compound concentration 100.0 nM
[5] = target: Casein kinase I isoform alpha (Homo sapiens) (UniProt P48729); settings: Compound concentration 100.0 nM
[6] = target: Casein kinase I isoform gamma-3 (Homo sapiens) (UniProt Q9Y6M4); settings: Compound concentration 100.0 nM
[7] = target: Casein kinase II subunit alpha' (Homo sapiens) (UniProt P19784); settings: Compound concentration 100.0 nM
[8] = target: Serine/threonine-protein kinase DCLK2 (Homo sapiens) (UniProt Q8N568); settings: Compound concentration 100.0 nM
[9] = target: Serine/threonine-protein kinase DCLK3 (Homo sapiens) (UniProt Q9C098); settings: Compound concentration 100.0 nM
[10] = system: Epidermal growth factor receptor (Homo sapiens), P00533 [UNDEFINED MUTATION]; settings: Compound concentration 100.0 nM
[11] = system: Epidermal growth factor receptor (Homo sapiens), P00533 [UNDEFINED MUTATION]; settings: Compound concentration 100.0 nM; remark: listed apart in the source
[12] = system: Epidermal growth factor receptor (Homo sapiens), P00533 [L861Q]; settings: Compound concentration 100.0 nM
[13] = target: Ephrin type-A receptor 5 (Homo sapiens) (UniProt P54756); settings: Compound concentration 100.0 nM
[14] = target: Ephrin type-B receptor 6 (Homo sapiens) (UniProt O15197); settings: Compound concentration 100.0 nM
[15] = target: Receptor tyrosine-protein kinase erbB-3 (Homo sapiens) (UniProt P21860); settings: Compound concentration 100.0 nM
[16] = target: Receptor tyrosine-protein kinase erbB-4 (Homo sapiens) (UniProt Q15303); settings: Compound concentration 100.0 nM
[17] = target: Mitogen-activated protein kinase 8 (Homo sapiens) (UniProt P45983); settings: Compound concentration 100.0 nM
[18] = system: Mast/stem cell growth factor receptor Kit (Homo sapiens), P10721 [D816H]; settings: Compound concentration 100.0 nM
[19] = target: Serine/threonine-protein kinase STK11 (Homo sapiens) (UniProt Q15831); settings: Compound concentration 100.0 nM
[20] = target: Serine/threonine-protein kinase 38-like (Homo sapiens) (UniProt Q9Y2H1); settings: Compound concentration 100.0 nM
[21] = target: Serine/threonine-protein kinase Nek7 (Homo sapiens) (UniProt Q8TDX7); settings: Compound concentration 100.0 nM
[22] = target: T1, Protein kinase C epsilon type (Homo sapiens) (UniProt Q02156); settings: Compound concentration 100.0 nM
T1 sequence (whole entry): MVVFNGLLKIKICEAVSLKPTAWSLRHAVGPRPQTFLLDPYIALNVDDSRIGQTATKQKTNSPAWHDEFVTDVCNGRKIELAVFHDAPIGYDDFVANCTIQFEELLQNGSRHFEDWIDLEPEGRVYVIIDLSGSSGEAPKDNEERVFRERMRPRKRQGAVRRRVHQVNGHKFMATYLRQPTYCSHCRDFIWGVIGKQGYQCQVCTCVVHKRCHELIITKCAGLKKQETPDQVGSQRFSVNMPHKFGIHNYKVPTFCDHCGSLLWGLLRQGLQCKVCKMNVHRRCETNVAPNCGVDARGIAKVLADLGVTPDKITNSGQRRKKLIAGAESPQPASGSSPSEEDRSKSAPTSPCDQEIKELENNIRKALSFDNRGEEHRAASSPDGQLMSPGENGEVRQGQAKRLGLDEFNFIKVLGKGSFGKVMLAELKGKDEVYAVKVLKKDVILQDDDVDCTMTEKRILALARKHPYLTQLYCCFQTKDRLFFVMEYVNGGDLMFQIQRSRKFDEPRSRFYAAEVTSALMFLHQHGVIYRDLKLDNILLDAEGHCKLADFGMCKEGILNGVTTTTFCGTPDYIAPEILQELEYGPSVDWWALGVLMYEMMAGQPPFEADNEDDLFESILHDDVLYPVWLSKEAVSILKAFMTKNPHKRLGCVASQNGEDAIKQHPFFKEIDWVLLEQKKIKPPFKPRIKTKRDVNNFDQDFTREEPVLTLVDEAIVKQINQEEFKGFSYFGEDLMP

[23] = target: Serine/threonine-protein kinase PRP4 homolog (Homo sapiens) (UniProt Q13523); settings: Compound concentration 100.0 nM
[24] = target: Protein-tyrosine kinase 2-beta (Homo sapiens) (UniProt Q14289); settings: Compound concentration 100.0 nM
[25] = target: Serine/threonine-protein kinase SIK3 (Homo sapiens) (UniProt Q9Y2K2); settings: Compound concentration 100.0 nM
[26] = system: Proto-oncogene tyrosine-protein kinase receptor Ret (Homo sapiens), P07949 [M918T]; settings: Compound concentration 100.0 nM
[27] = target: Ribosomal protein S6 kinase alpha-5 (Homo sapiens) (UniProt O75582); settings: Compound concentration 100.0 nM
[28] = target: Ribosomal protein S6 kinase alpha-2 (Homo sapiens) (UniProt Q15349); settings: Compound concentration 100.0 nM
[29] = target: STE20-like serine/threonine-protein kinase (Homo sapiens) (UniProt Q9H2G2); settings: Compound concentration 100.0 nM
[30] = target: Serine/threonine-protein kinase TBK1 (Homo sapiens) (UniProt Q9UHD2); settings: Compound concentration 100.0 nM
[31] = target: TGF-beta receptor type-1 (Homo sapiens) (UniProt P36897); settings: Compound concentration 100.0 nM
[32] = target: TGF-beta receptor type-2 (Homo sapiens) (UniProt P37173); settings: Compound concentration 100.0 nM
[33] = target: Tyrosine-protein kinase TXK (Homo sapiens) (UniProt P42681); settings: Compound concentration 100.0 nM
[34] = target: 5-hydroxytryptamine receptor 5A (Homo sapiens) (UniProt P47898); settings: Compound concentration 10.0 uM
[35] = target: Alpha-1B adrenergic receptor (Homo sapiens) (UniProt P35368); settings: Compound concentration 10.0 uM

Serine/threonine-protein kinase STK11 (Homo sapiens), sequence (Q15831 whole entry): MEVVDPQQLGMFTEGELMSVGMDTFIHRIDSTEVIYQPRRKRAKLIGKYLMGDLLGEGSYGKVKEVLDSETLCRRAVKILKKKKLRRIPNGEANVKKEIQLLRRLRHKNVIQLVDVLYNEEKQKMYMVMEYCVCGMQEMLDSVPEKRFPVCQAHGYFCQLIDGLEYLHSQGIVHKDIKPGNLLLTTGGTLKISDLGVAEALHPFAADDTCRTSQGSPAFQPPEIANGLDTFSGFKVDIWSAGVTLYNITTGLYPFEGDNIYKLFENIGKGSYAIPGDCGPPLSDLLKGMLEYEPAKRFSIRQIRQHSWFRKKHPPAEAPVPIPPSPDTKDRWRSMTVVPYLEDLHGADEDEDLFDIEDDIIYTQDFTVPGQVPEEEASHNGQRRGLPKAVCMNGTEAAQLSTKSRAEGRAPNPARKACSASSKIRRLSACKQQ
Tyrosine-protein kinase TXK (Homo sapiens), sequence (P42681 whole entry): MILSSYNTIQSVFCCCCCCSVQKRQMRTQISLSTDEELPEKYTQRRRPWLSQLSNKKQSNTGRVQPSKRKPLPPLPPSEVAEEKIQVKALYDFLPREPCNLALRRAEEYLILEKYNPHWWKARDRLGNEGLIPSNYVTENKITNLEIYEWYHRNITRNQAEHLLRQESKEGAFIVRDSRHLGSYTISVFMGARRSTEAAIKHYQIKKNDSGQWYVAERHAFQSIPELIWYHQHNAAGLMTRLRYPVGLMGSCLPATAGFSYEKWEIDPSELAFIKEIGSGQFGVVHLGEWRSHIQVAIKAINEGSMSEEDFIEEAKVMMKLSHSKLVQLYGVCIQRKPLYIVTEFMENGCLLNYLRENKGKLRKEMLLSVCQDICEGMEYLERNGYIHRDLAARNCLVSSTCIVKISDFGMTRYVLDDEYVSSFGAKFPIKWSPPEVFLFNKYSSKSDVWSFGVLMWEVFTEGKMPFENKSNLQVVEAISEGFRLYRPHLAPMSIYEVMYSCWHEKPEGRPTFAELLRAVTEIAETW
Serine/threonine-protein kinase DCLK2 (Homo sapiens), sequence (Q8N568 whole entry): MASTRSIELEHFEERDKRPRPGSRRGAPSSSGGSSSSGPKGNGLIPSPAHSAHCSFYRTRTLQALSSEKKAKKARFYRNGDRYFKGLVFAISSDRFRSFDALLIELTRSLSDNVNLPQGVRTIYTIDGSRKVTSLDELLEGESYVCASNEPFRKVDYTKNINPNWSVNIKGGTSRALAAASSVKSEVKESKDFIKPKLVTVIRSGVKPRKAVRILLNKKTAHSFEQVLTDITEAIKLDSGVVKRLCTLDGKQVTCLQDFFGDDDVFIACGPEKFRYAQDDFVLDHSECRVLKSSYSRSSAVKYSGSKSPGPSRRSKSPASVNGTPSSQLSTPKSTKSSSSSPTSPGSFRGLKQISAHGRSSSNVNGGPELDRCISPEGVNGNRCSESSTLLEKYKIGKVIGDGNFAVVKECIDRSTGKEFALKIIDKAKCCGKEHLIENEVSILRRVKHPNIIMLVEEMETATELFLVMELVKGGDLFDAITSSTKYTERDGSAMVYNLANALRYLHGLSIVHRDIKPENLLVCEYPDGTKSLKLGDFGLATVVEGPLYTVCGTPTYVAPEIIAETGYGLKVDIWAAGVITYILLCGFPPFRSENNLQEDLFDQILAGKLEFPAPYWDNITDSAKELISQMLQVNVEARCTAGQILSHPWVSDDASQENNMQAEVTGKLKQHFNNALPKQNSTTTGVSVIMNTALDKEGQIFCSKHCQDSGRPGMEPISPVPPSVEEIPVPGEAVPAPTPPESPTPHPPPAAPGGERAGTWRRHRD
Serine/threonine-protein kinase 38-like (Homo sapiens), sequence (Q9Y2H1 2-464 limits assumed): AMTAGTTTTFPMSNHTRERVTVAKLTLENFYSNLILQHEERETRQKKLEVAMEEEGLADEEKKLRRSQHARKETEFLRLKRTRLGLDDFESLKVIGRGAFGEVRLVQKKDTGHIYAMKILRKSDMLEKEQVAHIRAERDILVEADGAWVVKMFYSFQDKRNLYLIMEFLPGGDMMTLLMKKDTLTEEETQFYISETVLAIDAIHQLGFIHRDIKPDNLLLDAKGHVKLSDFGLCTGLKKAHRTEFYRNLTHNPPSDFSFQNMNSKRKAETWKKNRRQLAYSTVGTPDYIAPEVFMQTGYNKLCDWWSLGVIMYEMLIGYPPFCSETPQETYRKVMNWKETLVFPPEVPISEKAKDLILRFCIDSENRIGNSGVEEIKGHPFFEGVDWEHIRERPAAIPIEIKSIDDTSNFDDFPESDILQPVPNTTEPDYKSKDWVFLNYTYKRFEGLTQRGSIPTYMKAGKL
5-hydroxytryptamine receptor 5A (Homo sapiens), sequence (P47898 whole entry): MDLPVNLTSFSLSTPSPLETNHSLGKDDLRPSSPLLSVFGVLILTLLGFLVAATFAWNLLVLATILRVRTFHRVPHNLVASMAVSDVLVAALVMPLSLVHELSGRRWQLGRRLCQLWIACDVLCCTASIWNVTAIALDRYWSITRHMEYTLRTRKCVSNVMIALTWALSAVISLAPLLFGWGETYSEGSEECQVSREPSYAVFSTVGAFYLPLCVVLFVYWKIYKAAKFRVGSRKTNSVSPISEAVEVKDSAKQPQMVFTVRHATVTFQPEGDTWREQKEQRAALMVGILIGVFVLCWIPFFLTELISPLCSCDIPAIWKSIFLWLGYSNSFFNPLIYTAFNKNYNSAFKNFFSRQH
Bone morphogenetic protein receptor type-2 (Homo sapiens), sequence (Q13873 whole entry): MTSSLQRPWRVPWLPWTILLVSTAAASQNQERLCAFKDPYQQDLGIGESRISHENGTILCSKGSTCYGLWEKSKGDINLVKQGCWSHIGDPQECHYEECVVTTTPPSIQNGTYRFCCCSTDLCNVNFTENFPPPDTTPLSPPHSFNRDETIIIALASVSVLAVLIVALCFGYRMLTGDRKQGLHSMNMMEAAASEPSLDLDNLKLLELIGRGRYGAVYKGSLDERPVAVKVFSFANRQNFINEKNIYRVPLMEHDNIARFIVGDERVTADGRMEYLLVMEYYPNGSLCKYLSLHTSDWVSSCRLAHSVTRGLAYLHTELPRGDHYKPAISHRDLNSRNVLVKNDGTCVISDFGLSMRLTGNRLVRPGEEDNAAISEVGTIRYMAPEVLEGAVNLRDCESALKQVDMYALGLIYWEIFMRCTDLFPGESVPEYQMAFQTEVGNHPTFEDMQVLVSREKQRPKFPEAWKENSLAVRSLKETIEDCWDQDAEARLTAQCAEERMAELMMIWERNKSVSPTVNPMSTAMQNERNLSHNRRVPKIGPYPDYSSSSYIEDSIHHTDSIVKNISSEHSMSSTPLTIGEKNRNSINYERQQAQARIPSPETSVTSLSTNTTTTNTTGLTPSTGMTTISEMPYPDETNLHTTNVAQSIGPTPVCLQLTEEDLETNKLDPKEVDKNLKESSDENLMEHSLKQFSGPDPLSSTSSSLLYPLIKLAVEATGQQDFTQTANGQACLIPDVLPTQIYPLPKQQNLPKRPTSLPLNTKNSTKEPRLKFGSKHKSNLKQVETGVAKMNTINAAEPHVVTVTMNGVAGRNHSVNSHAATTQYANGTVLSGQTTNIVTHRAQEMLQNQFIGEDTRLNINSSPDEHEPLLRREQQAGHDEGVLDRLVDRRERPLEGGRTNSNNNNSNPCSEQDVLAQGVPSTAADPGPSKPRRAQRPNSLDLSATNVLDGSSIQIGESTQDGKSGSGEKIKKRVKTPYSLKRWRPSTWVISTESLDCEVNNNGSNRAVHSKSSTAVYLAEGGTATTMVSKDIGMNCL
Ribosomal protein S6 kinase alpha-2 (Homo sapiens), sequence (Q15349 whole entry): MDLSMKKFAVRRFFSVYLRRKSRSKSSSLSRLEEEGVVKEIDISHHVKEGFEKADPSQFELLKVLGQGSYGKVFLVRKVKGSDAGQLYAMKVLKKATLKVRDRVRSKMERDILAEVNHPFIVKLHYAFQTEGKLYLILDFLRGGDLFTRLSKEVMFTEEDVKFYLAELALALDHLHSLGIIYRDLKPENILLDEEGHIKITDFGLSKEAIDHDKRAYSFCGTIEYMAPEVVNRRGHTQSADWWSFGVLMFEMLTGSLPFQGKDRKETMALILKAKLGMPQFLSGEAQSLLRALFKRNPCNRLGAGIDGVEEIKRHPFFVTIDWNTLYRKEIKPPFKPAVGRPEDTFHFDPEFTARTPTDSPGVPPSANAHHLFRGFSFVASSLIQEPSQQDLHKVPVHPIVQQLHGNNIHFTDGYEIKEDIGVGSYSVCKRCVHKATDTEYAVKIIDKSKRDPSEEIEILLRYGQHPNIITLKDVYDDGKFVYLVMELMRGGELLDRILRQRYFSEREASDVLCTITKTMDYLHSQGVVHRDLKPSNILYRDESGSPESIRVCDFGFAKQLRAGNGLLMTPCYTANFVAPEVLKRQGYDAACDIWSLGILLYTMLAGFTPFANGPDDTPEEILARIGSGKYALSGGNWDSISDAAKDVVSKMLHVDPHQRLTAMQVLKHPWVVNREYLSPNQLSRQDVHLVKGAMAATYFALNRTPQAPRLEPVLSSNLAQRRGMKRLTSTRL
Casein kinase I isoform gamma-3 (Homo sapiens), sequence (Q9Y6M4 whole entry, looked up, canonical isoform): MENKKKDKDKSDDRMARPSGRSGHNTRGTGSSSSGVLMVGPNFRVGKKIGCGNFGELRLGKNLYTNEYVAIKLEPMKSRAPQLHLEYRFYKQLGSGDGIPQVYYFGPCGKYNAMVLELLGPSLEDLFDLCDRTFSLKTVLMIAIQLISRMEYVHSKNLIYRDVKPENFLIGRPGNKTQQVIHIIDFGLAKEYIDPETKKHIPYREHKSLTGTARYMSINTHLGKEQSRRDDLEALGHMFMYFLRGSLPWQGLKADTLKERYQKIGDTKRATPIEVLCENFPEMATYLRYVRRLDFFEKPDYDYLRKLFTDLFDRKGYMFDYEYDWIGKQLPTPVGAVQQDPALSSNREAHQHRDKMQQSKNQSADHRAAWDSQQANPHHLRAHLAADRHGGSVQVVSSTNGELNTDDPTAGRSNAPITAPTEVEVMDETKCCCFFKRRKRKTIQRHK

For CCOC(=O)c1cc2cc(-c3cc(C(=O)NCc4ccc(C(=O)O)cc4)nn3C)ccc2[nH]1 [BI 4394], which residual activity [1] is on record?
The residual activity was 84%.

What about the residual activity [2] of the same compound?
The residual activity was 90%.

What about the residual activity [3] of the same compound?
The residual activity was 82%.

And the residual activity [4]?
The residual activity was 94%.

What about the residual activity [5] of the same compound?
The residual activity was 88%.

And the residual activity [6]?
The residual activity was 100%.

And the residual activity [7]?
The residual activity was 87%.

And the residual activity [8]?
The residual activity was 100%.

And the residual activity [9]?
Its residual activity is 73%.

And the residual activity [10]?
Its residual activity is 100%.

What about the residual activity [11] of the same compound?
Its residual activity is 94%.

What about the residual activity [12] of the same compound?
Its residual activity is 100%.

And the residual activity [13]?
The residual activity was 100%.

And the residual activity [14]?
Its residual activity is 77%.

What about the residual activity [15] of the same compound?
The residual activity was 81%.

What about the residual activity [16] of the same compound?
Its residual activity is 96%.

And the residual activity [17]?
The residual activity was 96%.

And the residual activity [18]?
The residual activity was 75%.

And the residual activity [19]?
The residual activity was 100%.

What about the residual activity [20] of the same compound?
The residual activity was 72%.

And the residual activity [21]?
Its residual activity is 100%.

And the residual activity [22]?
Its residual activity is 90%.

And the residual activity [23]?
Its residual activity is 89%.

And the residual activity [24]?
The residual activity was 100%.

And the residual activity [25]?
Its residual activity is 100%.

What about the residual activity [26] of the same compound?
Its residual activity is 100%.

What about the residual activity [27] of the same compound?
Its residual activity is 100%.

What about the residual activity [28] of the same compound?
Its residual activity is 100%.

What about the residual activity [29] of the same compound?
The residual activity was 98%.

And the residual activity [30]?
Its residual activity is 84%.

And the residual activity [31]?
The residual activity was 100%.

What about the residual activity [32] of the same compound?
Its residual activity is 66%.

And the residual activity [33]?
The residual activity was 90%.

What about the inhibition [34] of the same compound?
Its inhibition is 14.8%.

And the inhibition [35]?
Its inhibition is -1.29%.

Which results are given for Cn1nc(C(=O)NCc2ccc(C(=O)O)cc2)cc1-c1ccc2[nH]ccc2c1 [BI 4395]?
residual activity [1]: 100%; residual activity [2]: 75%; residual activity [3]: 83%; residual activity [4]: 90%; residual activity [5]: 81%; residual activity [6]: 94%; residual activity [7]: 100%; residual activity [8]: 92%; residual activity [9]: 96%; residual activity [10]: 100%; residual activity [11]: 92%; residual activity [12]: 69%; residual activity [13]: 92%; residual activity [14]: 96%; residual activity [15]: 77%; residual activity [16]: 98%; residual activity [17]: 88%; residual activity [18]: 81%; residual activity [19]: 100%; residual activity [20]: 99%; residual activity [21]: 98%; residual activity [22]: 64%; residual activity [23]: 100%; residual activity [24]: 96%; residual activity [25]: 94%; residual activity [26]: 49%; residual activity [27]: 100%; residual activity [28]: 100%; residual activity [29]: 65%; residual activity [30]: 77%; residual activity [31]: 97%; residual activity [32]: 100%; residual activity [33]: 90%; inhibition [34]: 0.78%; inhibition [35]: -6.1%
